This is an account of results in doi:10.1101/2024.12.24.629646v1 (biorxiv, 2024).

The target in the experiment is mGlu5 WT (Homo sapiens, UniProt P41594). Put plainly: cell-based. On the set-up: species or system HEK293.
Chain of mGlu5 WT (P41594 whole entry): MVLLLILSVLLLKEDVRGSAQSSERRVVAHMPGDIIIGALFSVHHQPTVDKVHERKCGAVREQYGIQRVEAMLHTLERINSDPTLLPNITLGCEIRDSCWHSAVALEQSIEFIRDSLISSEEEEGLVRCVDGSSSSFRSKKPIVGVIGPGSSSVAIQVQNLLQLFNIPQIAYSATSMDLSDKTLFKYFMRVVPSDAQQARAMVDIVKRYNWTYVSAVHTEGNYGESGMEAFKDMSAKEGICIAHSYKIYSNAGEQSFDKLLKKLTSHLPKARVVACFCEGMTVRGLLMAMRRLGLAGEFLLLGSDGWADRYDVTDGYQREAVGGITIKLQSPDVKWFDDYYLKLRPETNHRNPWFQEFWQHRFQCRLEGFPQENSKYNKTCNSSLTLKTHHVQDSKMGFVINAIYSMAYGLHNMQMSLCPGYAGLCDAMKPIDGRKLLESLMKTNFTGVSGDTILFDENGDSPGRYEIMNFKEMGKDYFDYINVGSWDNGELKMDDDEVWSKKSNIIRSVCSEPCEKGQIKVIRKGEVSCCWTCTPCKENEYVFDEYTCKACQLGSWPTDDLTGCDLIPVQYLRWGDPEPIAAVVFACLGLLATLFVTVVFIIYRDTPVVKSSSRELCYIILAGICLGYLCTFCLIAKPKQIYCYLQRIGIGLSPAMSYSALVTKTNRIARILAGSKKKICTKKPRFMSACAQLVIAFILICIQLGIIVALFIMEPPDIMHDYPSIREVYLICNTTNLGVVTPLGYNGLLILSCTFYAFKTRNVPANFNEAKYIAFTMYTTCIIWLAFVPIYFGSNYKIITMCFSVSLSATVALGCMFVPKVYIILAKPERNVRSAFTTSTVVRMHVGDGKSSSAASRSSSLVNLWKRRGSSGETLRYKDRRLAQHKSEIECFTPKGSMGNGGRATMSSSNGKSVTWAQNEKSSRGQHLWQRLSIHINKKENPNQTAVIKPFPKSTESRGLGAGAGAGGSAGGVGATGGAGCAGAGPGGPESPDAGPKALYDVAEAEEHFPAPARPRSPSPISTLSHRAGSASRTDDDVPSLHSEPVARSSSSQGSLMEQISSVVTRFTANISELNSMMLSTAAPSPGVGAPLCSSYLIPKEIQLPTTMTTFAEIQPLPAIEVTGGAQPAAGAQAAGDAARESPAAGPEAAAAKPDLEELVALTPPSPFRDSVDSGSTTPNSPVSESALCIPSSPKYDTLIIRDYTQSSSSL

As usually defined, the EC50 is the concentration that produces a half-maximal response. Read a high EC50 as weaker potency. Regarding `C[C@@H](NC(=O)c1ccc(/N=N/c2cccc(F)c2)cn1)C(C)(C)O` [compound 2, (R,E)-5-((3-fluorophenyl)diazenyl)-N-(3-hydroxy-3-methylbutan-2-yl)picolinamide], the concentration for a half-maximal effect (EC50) was 1170 nM.

In turn, `C[C@@H](NC(=O)c1ccc(C#Cc2cccc(F)c2)cn1)C(C)(C)O` [compound 1, VU0424465] showed an EC50 of 5.25 nM.
